Test results: ChEMBL document CHEMBL1201862, “PubChem BioAssay data set” (2004)
“And” between values parts separate entries of the source, which are not always exact repeats. Equal entries are not always repeated.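 Grown in 96-well plates, cells were treated for 48 hours with each compound at five concentrations. Insufficient inhibition: endpoint recorded as highest concentration tested. GI50 marks 50% less growth.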 The source made the active and inactive calls. Rule as the data show it: active = GI50 up to about 1.1 µM and inactive = higher. Residues, ends and D or L forms follow the SMILES beside them. *: point of attachment. X38 = O=C(c1ccc(-c2ccc(Cl)cc2Cl)o1)*

Legend:
Assay in all cases: DTP human tumour cell line panel, 48 h
HL-60 = system: HL-60
CCRF-CEM = system: CCRF-CEM
NCI-H460 = system: NCI-H460
UACC-62 = system: UACC-62
SW-620 = system: SW-620
NCI-H23 = system: NCI-H23
HCT-116 = system: HCT-116
A498 = system: A498
MDA-N = system: MDA-N
OVCAR-5 = system: OVCAR-5
OVCAR-3 = system: OVCAR-3
NCI/ADR-RES = system: NCI/ADR-RES
MDA-MB-435 = system: MDA-MB-435
RXF 393 = system: RXF 393
LOX IMVI = system: LOX IMVI
IGROV-1 = system: IGROV-1
MOLT-4 = system: MOLT-4
HT-29 = system: HT-29
Hs-578T = system: Hs-578T
786-0 = system: 786-0

Structure (SMILES) | GI50 (HL-60) | GI50 (CCRF-CEM) | GI50 (NCI-H460) | GI50 (UACC-62) | GI50 (SW-620) | GI50 (NCI-H23) | GI50 (HCT-116) | GI50 (A498) | GI50 (MDA-N) | GI50 (OVCAR-5) | GI50 (OVCAR-3) | GI50 (NCI/ADR-RES) | GI50 (MDA-MB-435) | GI50 (RXF 393) | GI50 (LOX IMVI) | GI50 (IGROV-1) | GI50 (MOLT-4) | GI50 (HT-29) | GI50 (Hs-578T) | GI50 (786-0)
CC(=O)C(=[N+]=[N-])C(=O)NCC#N | > 10 µM (inactive) | > 10 µM (inactive) | > 10 µM (inactive) | > 10 µM (inactive) | > 10 µM (inactive) | > 10 µM (inactive) | > 10 µM (inactive) | > 10 µM (inactive) | > 10 µM (inactive) | > 10 µM (inactive) | > 10 µM (inactive) | > 10 µM (inactive) | > 10 µM (inactive) | > 10 µM (inactive) | > 10 µM (inactive) | > 10 µM (inactive) | > 10 µM (inactive) | > 10 µM (inactive) | > 10 µM (inactive) | > 10 µM (inactive)
O=c1c2nn3c(=O)n(-c4ccccc4)c(=O)c3nn2c(=O)n1-c1ccccc1 | > 100 µM (inactive) | 56 µM (inactive) | > 100 µM (inactive) | > 100 µM (inactive) | > 100 µM (inactive) | > 100 µM (inactive) | > 100 µM (inactive) | 50.4 µM (inactive) | > 100 µM (inactive) | > 100 µM (inactive) | > 100 µM (inactive) | > 100 µM (inactive) | > 100 µM (inactive) | > 100 µM (inactive) | > 100 µM (inactive) | > 100 µM (inactive) | > 100 µM (inactive) | > 100 µM (inactive) | > 100 µM (inactive) | > 100 µM (inactive)
C=C1C(=O)O[C@H]2C1C[C@@H](O)/C(C)=C/CC[C@@]1(C)O[C@H]21 (stereo not given in full) | 2.87 µM (inactive) | 3.17 µM (inactive) | 22.4 µM (inactive) | 24.7 µM (inactive) | 4.81 µM (inactive) | 13.6 µM (inactive) | 8.93 µM (inactive) | 25 µM (inactive) | 10.3 µM (inactive) | > 39.4 µM (inactive) | 3.27 µM (inactive) | 30.5 µM (inactive) | 8.2 µM (inactive) | 7.62 µM (inactive) | 9.16 µM (inactive) | 12.7 µM (inactive) | 6.93 µM (inactive) | 22.9 µM (inactive) | 31.3 µM (inactive) | 10.5 µM (inactive)
Cc1ccc(-n2cc(-c3ccc(Cl)cc3)c3c2N=CN2N=C(c4ccco4)NC32)cc1 (stereo not given) | > 100 µM (inactive) | 21 µM (inactive) | 4.49 µM (inactive) | 13.1 µM (inactive) | 8.87 µM (inactive) | 19.7 µM (inactive) | 7.05 µM (inactive) | 4.22 µM (inactive) | 19.5 µM (inactive) | > 100 µM (inactive) | 6.49 µM (inactive) | 7.5 µM (inactive) | 30.8 µM (inactive) | 11.2 µM (inactive) | 21.9 µM (inactive) | 7.62 µM (inactive) |  | > 100 µM (inactive) | 2.05 µM (inactive) | 4.67 µM (inactive)
Cc1cccc2c(N)c3cccc(C(=O)NCC[N+](C)(C)Cc4c([N+](=O)[O-])ncn4C)c3nc12 | 5.92 µM (inactive) | 18.9 µM (inactive) |  | 33.7 µM (inactive) | 18.9 µM (inactive) | 17.5 µM (inactive) | 26.4 µM (inactive) | 47.6 µM (inactive) | 47.1 µM (inactive) | 23.6 µM (inactive) | 41.8 µM (inactive) | > 49.9 µM (inactive) | 52.6 µM (inactive) | 48 µM (inactive) | 11.4 µM (inactive) | 27.3 µM (inactive) | 3.05 µM (inactive) | 12.7 µM (inactive) | 31.2 µM (inactive) | 6.5 µM (inactive)
COc1cc(/C=C/c2nc(N)nnc2C)cc(OC)c1OC | 3.03 µM (inactive) | 6 µM (inactive) | 13.8 µM (inactive) | 6.82 µM (inactive) | > 57.8 µM (inactive) | 13.9 µM (inactive) | 9.89 µM (inactive) | 18 µM (inactive) | 35.2 µM (inactive) | > 38.5 µM (inactive) |  | 11.2 µM (inactive) | 9.33 µM (inactive) | 22.9 µM (inactive) | 7.31 µM (inactive) | 15.6 µM (inactive) | 38.8 µM (inactive) | 10.6 µM (inactive) | 11.9 µM (inactive) | 21.5 µM (inactive)
COC(=O)c1cc(C)ccc1C1CN=NC12Cc1cccc(C)c1C2=O (stereo not given) | 12.7 µM (inactive) | 29.3 µM (inactive) | 26.2 µM (inactive) |  | 38.4 µM (inactive) | 42.7 µM (inactive) | 23.8 µM (inactive) | 47.6 µM (inactive) | 34.8 µM (inactive) | 17.9 µM (inactive) | 36.1 µM (inactive) | 25.5 µM (inactive) | 26.3 µM (inactive) | 25 µM (inactive) | 16.6 µM (inactive) | 37.7 µM (inactive) | 18.7 µM (inactive) | 36 µM (inactive) | 28.6 µM (inactive) | 56.6 µM (inactive)
CC(=O)OC(/C=C/c1ccccc1)P1(=O)N(CC(C)(C)C)[C@@H]2CCCC[C@H]2N1CC(C)(C)C (stereo not given in full) | 5.37 µM (inactive) and 5.71 µM (inactive) | 4.81 µM (inactive) and 4.38 µM (inactive) | 6.24 µM (inactive) and 4.84 µM (inactive) | 9.2 µM (inactive) and 8.99 µM (inactive) | 9.62 µM (inactive) and 5.27 µM (inactive) | 7.05 µM (inactive) and 5.18 µM (inactive) | 4.14 µM (inactive) and 3.53 µM (inactive) | 8.28 µM (inactive) | 11 µM (inactive) and 7.73 µM (inactive) | 10.7 µM (inactive) and 9.86 µM (inactive) |  | 5.89 µM (inactive) and 5.11 µM (inactive) | 7.36 µM (inactive) and 10 µM (inactive) | 3.24 µM (inactive) and 6.08 µM (inactive) | 11.2 µM (inactive) and 9.42 µM (inactive) | 5.11 µM (inactive) and 6.78 µM (inactive) | 3.63 µM (inactive) and 3.83 µM (inactive) | 4.25 µM (inactive) and 3.89 µM (inactive) | 6.92 µM (inactive) and 8.67 µM (inactive) | 9.62 µM (inactive) and 7.38 µM (inactive)
O=C1c2cc3ccccc3cc2C2(c3ccc(Cl)cc3)N[C@H]3CCCC[C@@H]3N12 (stereo not given in full) | 13.6 µM (inactive) | 48 µM (inactive) | 14.9 µM (inactive) | 15 µM (inactive) | 17.4 µM (inactive) | 14.6 µM (inactive) | 5.68 µM (inactive) | 18.3 µM (inactive) | 18.1 µM (inactive) | 21 µM (inactive) | 19.4 µM (inactive) | 14.2 µM (inactive) | 21.9 µM (inactive) | 9.89 µM (inactive) | 19 µM (inactive) | 13.3 µM (inactive) | 40.4 µM (inactive) | 14.4 µM (inactive) | 11.7 µM (inactive) | 11.2 µM (inactive)
CC(C)c1[nH]nc(C(N)=O)c1/N=N/N(C)C | > 100 µM (inactive) | 36.6 µM (inactive) | 42.5 µM (inactive) | 67.9 µM (inactive) | > 100 µM (inactive) | > 100 µM (inactive) | 98.4 µM (inactive) | > 100 µM (inactive) | > 100 µM (inactive) |  | > 100 µM (inactive) | > 100 µM (inactive) | 82.2 µM (inactive) | 63.1 µM (inactive) | 35.7 µM (inactive) | > 100 µM (inactive) | 31.9 µM (inactive) | > 100 µM (inactive) | 54.7 µM (inactive) | > 100 µM (inactive)
COc1ccc2c(CCN)c(C(=O)O)[nH]c2c1 | > 100 µM (inactive) |  | > 100 µM (inactive) | > 100 µM (inactive) | > 100 µM (inactive) | > 100 µM (inactive) | > 100 µM (inactive) | > 100 µM (inactive) | > 100 µM (inactive) | > 100 µM (inactive) | > 100 µM (inactive) | > 100 µM (inactive) | > 100 µM (inactive) | > 100 µM (inactive) | > 100 µM (inactive) | > 100 µM (inactive) | 1 µM (active) | > 100 µM (inactive) | > 100 µM (inactive) | > 100 µM (inactive)
Cc1ccc2c(O)cc(-c3ccsc3)nc2n1 | 2.17 µM (inactive) | 6.18 µM (inactive) | 4.01 µM (inactive) | 4.61 µM (inactive) | 1.75 µM (inactive) | 2.77 µM (inactive) | 3.62 µM (inactive) | 4.07 µM (inactive) | 0.454 µM (active) | 15.8 µM (inactive) | 6.46 µM (inactive) | 2.29 µM (inactive) | 0.597 µM (active) | 7.53 µM (inactive) | 3.62 µM (inactive) | 4.74 µM (inactive) | 3.56 µM (inactive) | 5.62 µM (inactive) | 3.82 µM (inactive) | 4.58 µM (inactive)
COC(=O)C(CC(C)C)NC(=O)C(Cc1ccccc1)NC(=O)C1CCCN1C(=O)C(CO)NC(=O)c1ccc(-c2ccc(Cl)cc2Cl)o1 (stereo not given) (X38-SPFL-OMe; configuration not given here) | 19.5 µM (inactive) | 36.8 µM (inactive) | 17.3 µM (inactive) | 23.8 µM (inactive) | 30.7 µM (inactive) | 27.7 µM (inactive) | 22.6 µM (inactive) | 24.5 µM (inactive) | 35.5 µM (inactive) | 21.9 µM (inactive) |  | 28.8 µM (inactive) | 28.3 µM (inactive) | 17.8 µM (inactive) | 21.8 µM (inactive) |  | 22.2 µM (inactive) | 17.6 µM (inactive) | 35.5 µM (inactive) | 25.1 µM (inactive)
O=C1NC(=O)[C@@]2(CC[C@@H](O)C2)c2ccncc21 [SESBANINE] | > 100 µM (inactive) | > 100 µM (inactive) | > 100 µM (inactive) | > 100 µM (inactive) | > 100 µM (inactive) | > 100 µM (inactive) | > 100 µM (inactive) | > 100 µM (inactive) | > 100 µM (inactive) | > 100 µM (inactive) |  | > 100 µM (inactive) | > 100 µM (inactive) | > 100 µM (inactive) | > 100 µM (inactive) | > 100 µM (inactive) | > 100 µM (inactive) | > 100 µM (inactive) | > 100 µM (inactive) | > 100 µM (inactive)
